In patent US11236087B2, “Highly active pyrazolo-piperidine substituted indole-2-carboxamides active against the hepatitis B virus (HBV)” (AiCuris GmbH & Co. KG, priority 2017, dated 2022):
Read-outs that look alike come from different tables or passages of the source.

Legend:
[1] = system: HBV; experiment: Determination of HBV DNA from the supernatants of HepAD38 cells (anti-HBV activity); assay type: cell-based, hepatitis B virus; conditions: HBV DNA in HepAD38 supernatant, day 6, qPCR, read-out: Cell Activity (EC50)
In short: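 Supernatant viral DNA was measured by LightCycler qPCR, calibrated with pCH-9/3091 plasmid, 6 days after tetracycline-free HepAD38 cultures received half-log serial compound dilutions; untreated and tetracycline-treated cells served as controls; EC50 was fitted by non-linear regression.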

[2] = system: HepAD38 cells; experiment: Cell viability assay (AlamarBlue) in HepAD38 cells; conditions: HepAD38 cells with 0.3 μg/ml tetracycline, six days incubation, AlamarBlue
[3] = biological target: T1, HBV core protein (UniProt P03146); experiment: Biochemical capsid assembly assay (fluorescence quenching); design: species or system hepatitis B virus
T1 construct: fused on or other part: BODIPY-FL maleimide label on the C-terminal Cys150
T1 sequence (P03146 whole entry, looked up, the tested form may be a part): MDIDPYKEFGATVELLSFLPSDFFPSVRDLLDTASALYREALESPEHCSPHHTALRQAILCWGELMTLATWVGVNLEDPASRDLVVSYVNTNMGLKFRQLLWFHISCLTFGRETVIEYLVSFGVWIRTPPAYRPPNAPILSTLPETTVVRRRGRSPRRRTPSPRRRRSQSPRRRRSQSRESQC
In short: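 Assembly-induced fluorescence quenching (477/525 nm) was measured 6 min after NaCl addition ([…]), against 2.5 M and 0 M NaCl controls. The labelled C150 core dimer (truncated at 149) at 1.0-2.0 μM in HEPES pH 7.5 was tested with eight half-log compound dilutions, top 100, 31.6 or 10 μM. EC50 was obtained by non-linear fit from triplicates run three times.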

[4] = Cell viability assay (AlamarBlue) in HepAD38 cells; conditions: human
[5] = BODIPY-FL labelled core protein, 300 μM NaCl, read 6 min after start; read-out: Assembly Activity (IC50)
[6] = read-out: Assembly Activity (IC50); BODIPY-FL labelled core protein, 300 μM NaCl, read 6 min after start

Molecule: 3-{1-[5-(1H-indole-2-carbonyl)-2H,4H,5H,6H,7H-pyrazolo[4,3-c]pyridin-3-yl]-N-methylformamido}-N-methanesulfonylpropanamide [Example 244]
- EC50 [1]: < 100 µM
- CC50 [2]: > 10 µM

Molecule: 5-(4-chloro-5-fluoro-1H-indole-2-carbonyl)-N-[1-(methoxymethyl)cyclopropyl]-N-methyl-1H,4H,5H,6H,7H-pyrazolo[4,3-c]pyridine-3-carboxamide [Example 268]
- EC50 [1]: < 1 µM
- IC50 [3, 5]: < 5 µM
- CC50 [2]: > 10 µM

Molecule: 5-[4-(1,1-difluoroethyl)-1H-indole-2-carbonyl]-N-[1-(methoxymethyl)cyclopropyl]-N-methyl-1H,4H,5H,6H,7H-pyrazolo[4,3-c]pyridine-3-carboxamide [Example 301]
- EC50 [1]: < 1 µM
- IC50 [3, 5]: < 5 µM
- CC50 [2]: > 10 µM

Molecule: O=C(c1cc2c(F)cc(F)cc2[nH]1)N1CCc2[nH]nc(C3CCCO3)c2C1 (centres unmarked) [Example 339, 4,6-difluoro-2-[3-(oxolan-2-yl)-1H,4H,5H,6H,7H-pyrazolo[4,3-c]pyridine-5-carbonyl]-1H-indole]
- EC50 ([1]; Hepatitis B virus, 144 h): < 1 µM
- IC50 [3, 6]: < 5 µM
- CC50 at 6 days [4]: > 10 µM

Molecule: CCc1cc(F)cc2[nH]c(C(=O)N3CCc4[nH]nc(C5CCCO5)c4C3)cc12 (centres unmarked) [Example 340, 4-ethyl-6-fluoro-2-[3-(oxolan-2-yl)-1H,4H,5H,6H,7H-pyrazolo[4,3-c]pyridine-5-carbonyl]-1H-indole]
- EC50 ([1]; Hepatitis B virus, 144 h): < 1 µM
- IC50 [3, 6]: < 5 µM
- CC50 at 6 days [4]: > 10 µM

Molecule: O=C(c1cc2c(Cl)cc(F)cc2[nH]1)N1CCc2[nH]nc(C3CCCO3)c2C1 (centres unmarked) [Example 341, 4-chloro-6-fluoro-2-[3-(oxolan-2-yl)-1H,4H,5H,6H,7H-pyrazolo[4,3-c]pyridine-5-carbonyl]-1H-indole]
- EC50 ([1]; Hepatitis B virus, 144 h): < 1 µM
- IC50 [3, 6]: < 5 µM
- CC50 at 6 days [4]: > 10 µM

Molecule: Cc1cc(F)cc2[nH]c(C(=O)N3CCc4[nH]nc(C5CCCO5)c4C3)cc12 (centres unmarked) [Example 342, 6-fluoro-4-methyl-2-[3-(oxolan-2-yl)-1H,4H,5H,6H,7H-pyrazolo[4,3-c]pyridine-5-carbonyl]-1H-indole]
- EC50 ([1]; Hepatitis B virus, 144 h): < 1 µM
- IC50 [3, 6]: < 5 µM
- CC50 at 6 days [4]: > 10 µM

Molecule: O=C(c1cc2ccccc2[nH]1)N1CCc2[nH]nc(C34CC(C3)C4)c2C1 [Example 343, 2-(3-{bicyclo[1.1.1]pentan-1-yl}-1H,4H,5H,6H,7H-pyrazolo[4,3-c]pyridine-5-carbonyl)-1H-indole]
- EC50 ([1]; Hepatitis B virus, 144 h): < 1 µM
- IC50 [3, 6]: < 5 µM
- CC50 at 6 days [4]: > 10 µM

Molecule: O=C(c1cc2ccccc2[nH]1)N1CCc2[nH]nc(C3CCCO3)c2C1 (centres unmarked) [Example 344, 2-[3-(oxolan-2-yl)-1H,4H,5H,6H,7H-pyrazolo[4,3-c]pyridine-5-carbonyl]-1H-indole]
- EC50 ([1]; Hepatitis B virus, 144 h): < 1 µM
- IC50 [3, 6]: < 5 µM
- CC50 at 6 days [4]: > 10 µM

Molecule: CN(C(=O)c1n[nH]c2c1CN(C(=O)c1cc3ccccc3[nH]1)CC2)C1(COCC(F)(F)F)CC1 [Example 359, 5-(1H-indole-2-carbonyl)-N-methyl-N-{1-[(2,2,2-trifluoroethoxy)methyl]cyclopropyl}-1H,4H,5H,6H,7H-pyrazolo[4,3-c]pyridine-3-carboxamide]
- EC50 ([1]; Hepatitis B virus, 144 h): < 1 µM
- IC50 [3, 6]: < 5 µM
- CC50 at 6 days [4]: > 10 µM

Molecule: CN(C(=O)c1n[nH]c2c1CN(C(=O)c1cc3ccccc3[nH]1)CC2)C1(COCC(F)F)CC1 [Example 360, N-{1-[(2,2-difluoroethoxy)methyl]cyclopropyl}-5-(1H-indole-2-carbonyl)-N-methyl-1H,4H,5H,6H,7H-pyrazolo[4,3-c]pyridine-3-carboxamide]
- EC50 ([1]; Hepatitis B virus, 144 h): < 1 µM
- IC50 [3, 6]: < 5 µM
- CC50 at 6 days [4]: > 10 µM

Molecule: CN(C(=O)c1n[nH]c2c1CN(C(=O)c1cc3ccccc3[nH]1)CC2)C1(CC#N)CC1 [Example 361, N-[1-(cyanomethyl)cyclopropyl]-5-(1H-indole-2-carbonyl)-N-methyl-1H,4H,5H,6H,7H-pyrazolo[4,3-c]pyridine-3-carboxamide]
- EC50 ([1]; Hepatitis B virus, 144 h): 1 to 25 µM
- IC50 [3, 6]: < 5 µM
- CC50 at 6 days [4]: > 10 µM

Molecule: CCOCC1(N(C)C(=O)c2[nH]nc3c2CN(C(=O)c2cc4c(F)cc(F)cc4[nH]2)CC3)CC1 [Example 363, 5-(4,6-difluoro-1H-indole-2-carbonyl)-N-[1-(ethoxymethyl)cyclopropyl]-N-methyl-2H,4H,5H,6H,7H-pyrazolo[4,3-c]pyridine-3-carboxamide]
- EC50 ([1]; Hepatitis B virus, 144 h): < 1 µM
- IC50 [3, 6]: < 5 µM
- CC50 at 6 days [4]: > 10 µM

Molecule: CCOCC1(N(C)C(=O)c2[nH]nc3c2CN(C(=O)c2cc4c(Cl)c(F)ccc4[nH]2)CC3)CC1 [Example 364, 5-(4-chloro-5-fluoro-1H-indole-2-carbonyl)-N-[1-(ethoxymethyl)cyclopropyl]-N-methyl-2H,4H,5H,6H,7H-pyrazolo[4,3-c]pyridine-3-carboxamide]
- EC50 ([1]; Hepatitis B virus, 144 h): < 1 µM
- IC50 [3, 6]: < 5 µM
- CC50 at 6 days [4]: > 10 µM

Molecule: CCOCC1(N(C)C(=O)c2[nH]nc3c2CN(C(=O)c2cc4c(Cl)cc(F)cc4[nH]2)CC3)CC1 [Example 365, 5-(4-chloro-6-fluoro-1H-indole-2-carbonyl)-N-[1-(ethoxymethyl)cyclopropyl]-N-methyl-2H,4H,5H,6H,7H-pyrazolo[4,3-c]pyridine-3-carboxamide]
- EC50 ([1]; Hepatitis B virus, 144 h): < 1 µM
- IC50 [3, 6]: < 5 µM
- CC50 at 6 days [4]: > 10 µM

Molecule: CCOCC1(N(C)C(=O)c2[nH]nc3c2CN(C(=O)c2cc4c(C)cc(F)cc4[nH]2)CC3)CC1 [Example 366, N-[1-(ethoxymethyl)cyclopropyl]-5-(6-fluoro-4-methyl-1H-indole-2-carbonyl)-N-methyl-2H,4H,5H,6H,7H-pyrazolo[4,3-c]pyridine-3-carboxamide]
- EC50 ([1]; Hepatitis B virus, 144 h): < 1 µM
- IC50 [3, 6]: < 5 µM
- CC50 at 6 days [4]: > 10 µM

Molecule: CCOCC1(N(C)C(=O)c2[nH]nc3c2CN(C(=O)c2cc4cccc(F)c4[nH]2)CC3)CC1 [Example 367, N-[1-(ethoxymethyl)cyclopropyl]-5-(7-fluoro-1H-indole-2-carbonyl)-N-methyl-2H,4H,5H,6H,7H-pyrazolo[4,3-c]pyridine-3-carboxamide]
- EC50 ([1]; Hepatitis B virus, 144 h): < 1 µM
- IC50 [3, 6]: < 5 µM
- CC50 at 6 days [4]: > 10 µM

Molecule: CN(C(=O)c1[nH]nc2c1CN(C(=O)c1cc3ccccc3[nH]1)CC2)C1(c2cocn2)CC1 [Example 368, 5-(1H-indole-2-carbonyl)-N-methyl-N-[1-(1,3-oxazol-4-yl)cyclopropyl]-2H,4H,5H,6H,7H-pyrazolo[4,3-c]pyridine-3-carboxamide]
- EC50 ([1]; Hepatitis B virus, 144 h): < 1 µM
- IC50 [3, 6]: < 5 µM
- CC50 at 6 days [4]: > 10 µM

Molecule: N-(2,3-dihydroxypropyl)-5-(1H-indole-2-carbonyl)-N-methyl-2H,4H,5H,6H,7H-pyrazolo[4,3-c]pyridine-3-carboxamide [Example 253]
- EC50 [1]: 1 to 25 µM
- IC50 [3, 5]: 5 to 10 µM
- CC50 [2]: > 10 µM

Molecule: N-[1-(methoxymethyl)cyclopropyl]-N-methyl-5-(4-methyl-1H-indole-2-carbonyl)-1H,4H,5H,6H,7H-pyrazolo[4,3-c]pyridine-3-carboxamide [Example 260]
- EC50 [1]: < 1 µM
- IC50 [3, 5]: < 5 µM
- CC50 [2]: > 10 µM

Molecule: N-ethyl-5-(1H-indole-2-carbonyl)-N-(2-methoxyethyl)-1H,4H,5H,6H,7H-pyrazolo[4,3-c]pyridine-3-carboxamide [Example 294]
- EC50 [1]: < 1 µM
- IC50 [3, 5]: 5 to 10 µM
- CC50 [2]: > 10 µM

Molecule: tert-butyl N-(2-{1-[5-(1H-indole-2-carbonyl)-2H,4H,5H,6H,7H-pyrazolo[4,3-c]pyridin-3-yl]-N-methylformamido}ethyl)carbamate [Example 281]
- EC50 [1]: 1 to 25 µM
- IC50 [3, 5]: < 100 µM
- CC50 [2]: > 10 µM
